Laboratory results reported in patent publication US8937167B2 (Washington University, priority 2009, dated 2015).
Read-outs that look alike come from different tables or passages of the source.

What was measured:
[1] = assay type: in vitro ADME; settings: for PAMPA (LogPe): pH 7.4
Protocol: Materials. The assay was carried out using Multiscreen PVDF 96-well plates (Millipore, Billerica, Mass.) using the company's Transporter Receiver Plate. The lipid (dioleyoylphosphotidylcholine (DOPC):Stearic Acid (80:20, wt %) in dodecane was obtained from Avanti Polar lipids (Alabaster, Ala.). Hank's Buffered Salt Solution (HBSS), pH 7.4 was obtained from MediaTech (Manassas, Va.).
Methods. Each of the test compounds was diluted to 2.5 mM in DMSO (Sigma, St Louis, Mo.) and further diluted prior to testing to 2.5 μM in HBSS, pH 7.4. The assay was performed using a Millipore 96-well Multiscreen-IP PAMPA plate, 5 μl of the lipid suspension was directly added to the PVDF membrane of the filter plate. Immediately following the addition of the lipid to the membrane, 200 μl of HBSS solution containing the test compound was added to the donor (upper) chamber. HBSS (300 μl) is also added to the receiver plate and the filter and receiver plates assembled and incubated overnight at room temperature in a moistened sealed bag to prevent evaporation. The concentration in the receiver plate as well as an equilibrium plate, that represents a theoretical, partition-free sample, was determined by HPLC-tandem mass spectrometry. Analysis of each compound was performed in triplicate.
Analysis. Analysis of both the acceptor and equilibrium samples were performed using an AB 3200 triple quadripole mass spectrometer linked to a Shimadzu DGU-20A HPLC with a Prevail C18 column (3 μm, 2.1×10 mm) with a flow rate of 0.35 ml/min. The mobile phase used was A: 0.1% Formic Acid in water, B: 0.1% Formic Acid in methanol. The elation gradient method is described in the table. Data acquisition and peak height determination was performed using Analyst v.1.4.2.
Calculations. The login of the effective permeability (LogPe) was calculated using the following equation
[formula] [formula] Where the drug concentration is the peak areas for the analyte and VD and VA is the volume of the donor and acceptor compartment respectively. The area is the surface area of the PVDF membrane (0.11 cm^2) and time is the incubation in seconds (64,800 sec). Each value is the mean of triplicates performed on the same day.

FimH [2] = molecular target: T1, FimH (Escherichia coli, UniProt Q1R2J4); settings: for HAI Titer EC>50: Table 21;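 on all read-outs here: hemagglutination inhibition of guinea pig erythrocytes agglutinated by type 1 piliated uropathogenic E. coli via FimH mannose binding, quantified through serial dilutions of compound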
UTI89 biofilm = assay: UTI89 type 1 dependent biofilm formation (inhibition/prevention) assay on PVC, crystal violet; assay type: cell-based, uropathogenic E. coli UTI89; settings: Escherichia coli
Outline: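 Prevention: UTI89 grown in LB in PVC wells at 23° C with mannoside at varying concentrations for 48 h, then crystal violet stained and quantified. Disruption: 24 h UTI89 biofilm, mannoside added, grown 16 h more, then crystal violet.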

[3] = molecular target: T2, FimH lectin domain (residues 1-158 of UPEC J96 FimH) (Escherichia coli, UniProt P08191); assay type: binding
T2 construct: made in house
Protocol: DSF measures the melting temperature change of protein when binding to small molecules. Melting temperature shifts are proportional to the free energy of binding, and melting temperatures increase even as ligand concentration exceeds the Kd.
FimH lectin domain (residues 1-158 of UPEC J96 FimH, without an affinity tag) was purified as described previously. Five micrograms FimH in 5 μl HBS were mixed with HBS to yield a final volume of 50 μl containing compound at a final concentration of 100 μM and a “5×” final concentration of SYPRO Orange (sold as a “5000×” stock in DMSO and mixed with HBS to a working stock of 50× immediately before use: Life Technologies Inc.; Grand Island, N.Y.). Compounds were diluted to 100 μM from stocks in DMSO and compared to matched control wells with FimH alone plus 0.2% DMSO. 50 μl reactions were placed in 96-well clear-bottom PCR plates and subjected to a melt curve from 20-90° C. in 0.5° C. increments of 15 seconds each followed by a fluorescence read of the “HEX” channel in a Bio-Rad CFX96 thermocycler (Bio-Rad, Hercules, Calif.). Melt curves were fitted to the Boltzmann equation to determine the melting temperature (Tm) (y=A2+(A1−A2)/(1+exp((x−x0)/dx)) where x0 is the Tm) using OriginPro 8 (OriginLab, Northampton Mass.).

FimH lectin domain = molecular target: T3, FimH lectin domain (Escherichia coli, UniProt P08191); assay: biochemical; assay type: binding, E. coli
T3 construct: made by biotinylating FimH lectin domain^25 at a 1:1 molar ratio with NHS-PEO4-Biotin
Protocol: Samples or buffer (200 μL per well) were dispensed into 96-well microtiter plates (Greiner Bio-One, Monroe N.C.) and maintained at 30° C. with 1000 RPM shaking. Pre-manufactured pins for individual assays were made by biotinylating FimH lectin domain^25 at a 1:1 molar ratio with NHS-PEO4-Biotin (Thermo Fisher, Rockford Ill.), diluting it to 50 μg/ml in 20 mM HEPES pH 7.5, 150 mM NaCl (HBS), immobilizing it on high-binding streptavidin-coated biosensor tips (Super Streptavidin, ForteBio, Inc., Menlo Park, Calif.) for 10 minutes at 30° C., blocking the pins with 10 μg/ml biocytin for 2 minutes, washing in HBS for 1 hour, and rinsing in 15% sucrose in HBS. Pins were then air dried for 30 minutes and stored in their original packaging with a dessicant packet. Assays were performed by re-wetting premade pins with HBS for 15 minutes, then storing them in fresh HBS until use. […] Each experimental pin was referenced to a biocytin-blocked pin to control for instrument drift and a second biocytin-blocked pin that was passed through a duplicate experiment in the same 96-well plate to control for nonspecific binding of the compound to the pin. Kinetics data and affinity constants were generated automatically by the global fitting protocol in ForteBio Data Analysis version 6.3.

FimH [4] = molecular target: T1, FimH; assay: cell-based; settings: read-out: HAI Titer EC90
[5] = read-out: Biofilm Prevention IC50
[6] = Table 17, Examples 30-36 numbering
[7] = Table 20, Examples 30-36 numbering

| Structure (SMILES) | PAMPA (LogPe) ([1]; 64800 sec, […]) | IC50 (UTI89 biofilm; [5]) | HAI Titer EC>90 (FimH [2]; [7]) | DSF Melting Temp. ([3]; Table 20, compound at 100 μM) | Kd (FimH lectin domain; Table 20, read-out: Octet Kd) | also measured |
| --- | --- | --- | --- | --- | --- | --- |
| CNC(=O)c1cc(C(=O)NC)cc(-c2ccc(OC3O[C@@H](CO)[C@@H](O)[C@H](O)[C@H]3O)c(C(F)(F)F)c2)c1 (stereo partly drawn) [Compound 1JWJ149, N1,N3-dimethyl-5-[3-(trifluoromethyl)-4-[(3R,4S,5S,6S)-3,4,5-trihydroxy-6-(hydroxymethyl)tetrahydropyran-2-yl]oxy-phenyl]benzene-1,3-dicarboxamide] | −6.27 | 43 nM | – | – | – | HAI Titer EC>90 (FimH [2]): 0.008 µM; HAI Titer EC>50 (FimH [2]; ZFH/JWJ codes): 0.008 µM; HAI Titer EC>90 (FimH [2]; Table 22, ZFH/JWJ codes): 0.008 µM; DSF Melting Temp. ([3]; Table 21): 76.15 C. |
| COC(=O)c1cccc(-c2ccc(OC3OC(CO)C(O)C(O)C3O)cc2)c1 (stereo not shown) [Compound 2ZFH236] | −4.250 | – | – | – | – | HAI Titer EC>50 (FimH [2]): >2500 µM |
| CNC(=O)c1cccc(-c2ccc(O[C@H]3O[C@H](CO)[C@@H](O)[C@H](O)[C@@H]3O)cc2)c1 [Compound 2] | – | 1350 nM | 0.500 µM | 73.38 °C | – | Kd (FimH lectin domain): 0.1 nM; Kd, qualitative (FimH lectin domain): picomolar range; HAI Titer EC>90 (FimH [2]; [6]): 0.50 µM; IC50 (UTI89 biofilm; read-out: biofilm inhibition IC50): 1350 nM |
| OCC1OC(Oc2ccc(-c3ccc(O)cc3)cc2)C(O)C(O)C1O (stereo not shown) [Compound 3ZFH26, 2-(hydroxymethyl)-6-[4-(4-hydroxyphenyl)phenoxy]tetrahydropyran-3,4,5-triol] | −8.890 | – | – | – | – | – |
| NC(=O)Nc1ccc(-c2ccc(OC3O[C@@H](CO)[C@@H](O)[C@H](O)[C@H]3O)cc2)cc1 (stereo partly drawn) [Compound 4ZFH218, [4-[4-[(3R,4S,5S,6S)-3,4,5-trihydroxy-6-(hydroxymethyl)tetrahydropyran-2-yl]oxyphenyl]phenyl]urea] | −4.35 | – | – | – | – | HAI Titer EC>90 (FimH [2]): 3.000 µM; HAI Titer EC>50 (FimH [2]; ZFH/JWJ codes): 3.000 µM; HAI Titer EC>90 (FimH [2]; Table 22, ZFH/JWJ codes): 3.000 µM |
| COC(=O)c1cccc(-c2ccc(OC3O[C@@H](CO)[C@@H](O)[C@H](O)[C@H]3O)c(C(F)(F)F)c2)c1 (stereo partly drawn) [Compound 4ZFH222, methyl 3-[3-(trifluoromethyl)-4-[(3R,4S,5S,6S)-3,4,5-trihydroxy-6-(hydroxymethyl)tetrahydropyran-2-yl]oxy-phenyl]benzoate] | −3.91 | 8170 nM | – | – | – | HAI Titer EC>90 (FimH [2]): 0.032 µM; HAI Titer EC>50 (FimH [2]; ZFH/JWJ codes): 0.032 µM; HAI Titer EC>90 (FimH [2]; Table 22, ZFH/JWJ codes): 0.032 µM |
| CNC(=O)c1cccc(-c2ccc(OC3O[C@@H](CO)[C@@H](O)[C@H](O)[C@H]3O)c(C)c2)c1 (stereo partly drawn) [Compound 4ZFH269, N-methyl-3-[3-methyl-4-[(3R,4S,5S,6S)-3,4,5-trihydroxy-6-(hydroxymethyl)tetrahydropyran-2-yl]oxy-phenyl]benzamide] | −3.89 | 159 nM | – | – | – | HAI Titer EC>90 (FimH [2]): 0.062 µM; HAI Titer EC>50 (FimH [2]; ZFH/JWJ codes): 0.06 µM; HAI Titer EC>90 (FimH [2]; Table 22, ZFH/JWJ codes): 0.062 µM; DSF Melting Temp. ([3]; Table 21): 74.46 C. |
| COC(=O)c1cccc(-c2ccc(O[C@H]3O[C@H](CO)[C@@H](O)[C@H](O)[C@@H]3O)c(Cl)c2)c1 [Compound 4b, Methyl 3-[3-chloro-4-[(2R,3S,4S,5S,6R)-3,4,5-trihydroxy-6-(hydroxymethyl)tetrahydropyran-2-yl]oxy-phenyl]benzoate] | −4.29 | 260 nM | – | – | – | HAI Titer EC>90 (FimH [2]; [6]): 0.03 µM; fold better HAI activity (FimH [2]; relative to matched pair 1, Examples 30-36 numbering): more than 30 fold; EC90 (FimH [4]): 30 nM |
| COC(=O)c1cccc(-c2ccc(O[C@H]3O[C@H](CO)[C@@H](O)[C@H](O)[C@@H]3O)c(C(F)(F)F)c2)c1 [Compound 4d, Methyl 3-[3-(trifluoromethyl)-4-[(2R,3S,4S,5S,6R)-3,4,5-trihydroxy-6-(hydroxymethyl)tetrahydropyran-2-yl]oxy-phenyl]benzoate] | −3.91 | 170 nM | – | – | – | HAI Titer EC>90 (FimH [2]; [6]): 0.03 µM; EC90 (FimH [4]): 30 nM |
| O=[N+]([O-])c1ccc(COC2OC(CO)C(O)C(O)C2O)cc1 (stereo not shown) [Compound 5b] | – | – | – | – | – | LogPe ([1]; PAMPA): −3.89; PAMPA (LogPe) [1]: −3.89 |
| CNS(=O)(=O)c1cccc(-c2ccc(O[C@H]3O[C@H](CO)[C@@H](O)[C@H](O)[C@@H]3O)cc2)c1 [Compound 19] | – | – | 1.000 µM | 72.05 °C | 0.49 nM | – |
| OC[C@H]1O[C@H](Oc2ccc(-c3cccc(C(F)(F)F)c3)cc2)[C@@H](O)[C@@H](O)[C@@H]1O [Compound 25] | – | – | – | 68.32 °C | 1.56 nM | – |
| CC(=O)Nc1cccc(-c2ccc(O[C@H]3O[C@H](CO)[C@@H](O)[C@H](O)[C@@H]3O)cc2)c1 [Compound 26] | – | – | 2.000 µM | 72.30 °C | 1.14 nM | – |
| O=C(O)c1cccc(-c2ccc(O[C@H]3O[C@H](CO)[C@@H](O)[C@H](O)[C@@H]3O)cc2)c1 [Compound 30] | – | – | 4.000 µM | 70.93 °C | 2.21 nM | – |
| OC[C@H]1O[C@H](Oc2ccc3ccccc3c2)[C@@H](O)[C@@H](O)[C@@H]1O [Compound 31] | – | – | 6.000 µM | 70.75 °C | 2.72 nM | – |
| COC(=O)c1cccc(O[C@H]2O[C@H](CO)[C@@H](O)[C@H](O)[C@@H]2O)c1 [Compound 32] | – | – | 6.000 µM | 70.75 °C | 2.72 nM | – |
| OCC1OC(Oc2ccc(-c3ccccc3)cc2)C(O)C(O)C1O (stereo not shown) [Compound 33] | – | – | – | 71.17 °C | – | Kd (FimH lectin domain): 3 nM |
